Reference: ChEMBL document CHEMBL1681651, “A broad spectrum anticancer nucleoside with selective toxicity against human colon cells in vitro” (2011)

Columns and labels:
Assay type in all cases: functional
DU-145 = assay: Growth inhibition of human DU145 cells assessed as cell growth at 0.1 uM after 48 hrs by SRB assay; conditions: DU-145, 48 h, read-out: Activity
A498 = assay: Growth inhibition of human A498 cells after 48 hrs by […] growth inhibition assay; conditions: A498, 48 h
OVCAR-5 = assay: Growth inhibition of human OVCAR5 cells assessed as cell growth at 10 uM after 48 hrs by SRB assay; conditions: OVCAR-5, 48 h, read-out: Activity
SNB-75 [1] = assay: Growth inhibition of human SNB75 cells assessed as cell growth at 100 uM after 48 hrs by SRB assay; conditions: SNB-75, 48 h, read-out: Activity
T47D = assay: Growth inhibition of human T47D cells assessed as cell growth at 0.1 uM after 48 hrs by SRB assay; conditions: read-out: Activity
SK-OV-3 [2] = assay: Growth inhibition of human SKOV3 cells after 48 hrs by […] growth inhibition assay; conditions: SK-OV-3, 48 h
SF-268 = assay: Growth inhibition of human SF268 cells assessed as cell growth at 1 mM after 48 hrs by SRB assay; conditions: SF-268, 48 h, read-out: Activity
IGROV-1 [3] = assay: Growth inhibition of human IGROV1 cells assessed as cell growth at 0.1 uM after 48 hrs by SRB assay; conditions: IGROV-1, 48 h, read-out: Activity
NCI-H23 [4] = assay: Growth inhibition of human NCI-H23 cells after 48 hrs by […] growth inhibition assay; conditions: NCI-H23, 48 h
[5] = Growth inhibition of human […] cells assessed as cell growth at 0.1 uM after 48 hrs by SRB assay; conditions: read-out: Activity
SNB-19 = assay: Growth inhibition of human SNB19 cells assessed as cell growth at 100 uM after 48 hrs by SRB assay; conditions: SNB-19, 48 h, read-out: Activity
CCRF-CEM = assay: Growth inhibition of human CCRF-CEM cells assessed as cell growth at 0.1 uM after 48 hrs by SRB assay; conditions: read-out: Activity
NCI/ADR-RES = assay: Growth inhibition of human NCI/ADR-RES cells assessed as cell growth at 0.1 uM after 48 hrs by SRB assay; conditions: read-out: Activity
SK-OV-3 [6] = assay: Growth inhibition of human SKOV3 cells assessed as cell growth at 100 uM after 48 hrs by SRB assay; conditions: SK-OV-3, 48 h, read-out: Activity
TK-10 = assay: Growth inhibition of human TK10 cells assessed as cell growth at 10 uM after 48 hrs by SRB assay; conditions: TK-10, 48 h, read-out: Activity
A549 = assay: Growth inhibition of human A549 cells assessed as cell growth at 1 mM after 48 hrs by SRB assay; conditions: A549, 48 h, read-out: Activity
HCC 2998 = assay: Growth inhibition of human HCC2998 cells assessed as cell growth at 1 mM after 48 hrs by SRB assay; conditions: HCC 2998, 48 h, read-out: Activity
NCI-H23 [7] = assay: Growth inhibition of human NCI-H23 cells assessed as cell growth at 10 uM after 48 hrs by SRB assay; conditions: NCI-H23, 48 h, read-out: Activity
ACHN = assay: Growth inhibition of human ACHN cells assessed as cell growth at 1 uM after 48 hrs by SRB assay; conditions: read-out: Activity
NCI-H522 = assay: Growth inhibition of human NCI-H522 cells assessed as cell growth at 100 uM after 48 hrs by SRB assay; conditions: NCI-H522, 48 h, read-out: Activity
MCF7 = assay: Growth inhibition of human MCF7 cells assessed as cell growth at 0.1 uM after 48 hrs by SRB assay; conditions: MCF7, 48 h, read-out: Activity
HCT-15 = assay: Growth inhibition of human HCT15 cells assessed as cell growth at 0.1 uM after 48 hrs by SRB assay; conditions: HCT-15, 48 h, read-out: Activity
IGROV-1 [8] = assay: Growth inhibition of human IGROV1 cells after 48 hrs by […] growth inhibition assay; conditions: IGROV-1, 48 h
COLO 205 [9] = assay: Growth inhibition of human COLO205 cells assessed as cell growth at 10 uM after 48 hrs by SRB assay; conditions: COLO 205, 48 h, read-out: Activity
COLO 205 [10] = assay: Growth inhibition of human COLO205 cells assessed as cell growth at 100 uM after 48 hrs by SRB assay; conditions: COLO 205, 48 h, read-out: Activity
HT-29 = assay: Growth inhibition of human HT-29 cells assessed as cell growth at 1 uM after 48 hrs by SRB assay; conditions: HT-29, 48 h, read-out: Activity
OVCAR-4 = assay: Growth inhibition of human OVCAR4 cells assessed as cell growth at 1 uM after 48 hrs by SRB assay; conditions: OVCAR-4, 48 h, read-out: Activity
786-0 = assay: Growth inhibition of human 786-0 cells assessed as cell growth at 1 uM after 48 hrs by SRB assay; conditions: 786-0, 48 h, read-out: Activity
LOX IMVI = assay: Growth inhibition of human LOXIMVI cells assessed as cell growth at 10 uM after 48 hrs by SRB assay; conditions: read-out: Activity
UACC-62 = assay: Growth inhibition of human UACC62 cells assessed as cell growth at 100 uM after 48 hrs by SRB assay; conditions: UACC-62, 48 h, read-out: Activity
SNB-75 [11] = assay: Growth inhibition of human SNB75 cells after 48 hrs by […] growth inhibition assay; conditions: SNB-75, 48 h
HOP-62 = assay: Growth inhibition of human HOP62 cells assessed as cell growth at 10 uM after 48 hrs by SRB assay; conditions: HOP-62, 48 h, read-out: Activity
NCI-H226 = assay: Growth inhibition of human NCI-H226 cells after 48 hrs by […] growth inhibition assay; conditions: NCI-H226, 48 h
[12] = read-out: LC50 (the source's name)
[13] = read-out: pLC50 (the source's name) (converted)

`CNC(=O)NC[C@H]1O[C@@H](n2cnc3c(NC(=O)Nc4ccccc4)ncnc32)[C@H](O[Si](C)(C)C(C)(C)C)[C@@H]1O[Si](C)(C)C(C)(C)C` showed a growth at 0.1 µM (DU-145) of 103%, a GI50 (A498; read-out: GI50) of 2.03 µM and a CC50 (A498; [12]) of 19.5 µM. The TGI (A498; read-out: TGI) was 4.96 µM, the GI50 (A498; read-out: pGI50 (converted)) was 2.04 µM and the CC50 (A498; [13]) was 19.5 µM. It also gave a TGI (A498; read-out: pTGI (converted)) of 5.01 µM, a growth at 10 µM (OVCAR-5) of 103% and a growth at 100 µM (SNB-75 [1]) of 14%. The growth at 0.1 µM (T47D) was 101%, the GI50 (SK-OV-3 [2]; read-out: GI50) was 6.88 µM and the CC50 (SK-OV-3 [2]; [12]) was > 100 µM. The TGI (SK-OV-3 [2]; read-out: TGI) was > 100 µM, the GI50 (SK-OV-3 [2]; read-out: pGI50 (converted)) was 6.92 µM and the CC50 (SK-OV-3 [2]; [13]) was > 100 µM. The TGI (SK-OV-3 [2]; read-out: pTGI) was > 100 µM, the growth at 1000 µM (SF-268) was -45% and the growth at 0.1 µM (IGROV-1 [3]) was 100%. It also gave a GI50 (NCI-H23 [4]; read-out: GI50) of 3.17 µM, a CC50 (NCI-H23 [4]; [12]) of 86 µM and a TGI (NCI-H23 [4]; read-out: TGI) of 9.07 µM. For the same molecule, the GI50 (NCI-H23 [4]; read-out: pGI50 (converted)) was 3.16 µM, the CC50 (NCI-H23 [4]; [13]) was 85.1 µM and the TGI (NCI-H23 [4]; read-out: pTGI (converted)) was 9.12 µM. The growth at 0.1 µM [5] was 102%, the growth at 100 µM (SNB-19) was 29% and the growth at 0.1 µM (CCRF-CEM) was 104%. For the same molecule, the growth at 0.1 µM (NCI/ADR-RES) was 106%, the growth at 100 µM (SK-OV-3 [6]) was 39% and the growth at 10 µM (TK-10) was 112%. The growth at 1000 µM (A549) was -30%, the growth at 1000 µM (HCC 2998) was -91% and the growth at 10 µM (NCI-H23 [7]) was 105%. For the same molecule, the growth at 1 µM (ACHN) was 108%, the growth at 100 µM (NCI-H522) was -15% and the growth at 0.1 µM (MCF7) was 99%. The growth at 0.1 µM (HCT-15) was 105%, the GI50 (IGROV-1 [8]; read-out: GI50) was 2.74 µM and the CC50 (IGROV-1 [8]; [12]) was > 100 µM. The TGI (IGROV-1 [8]; read-out: TGI) was 7.76 µM, the GI50 (IGROV-1 [8]; read-out: pGI50 (converted)) was 2.75 µM and the CC50 (IGROV-1 [8]; [13]) was > 100 µM. It also gave a TGI (IGROV-1 [8]; read-out: pTGI (converted)) of 7.76 µM, a growth at 10 µM (COLO 205 [9]) of 105% and a growth at 100 µM (COLO 205 [10]) of -95%. For the same molecule, the growth at 1 µM (HT-29) was 104%, the growth at 1 µM (OVCAR-4) was 108% and the growth at 1 µM (786-0) was 113%. It also gave a growth at 10 µM (LOX IMVI) of 98%, a growth at 100 µM (UACC-62) of 23% and a GI50 (SNB-75 [11]; read-out: GI50) of 2.43 µM. For the same molecule, the CC50 (SNB-75 [11]; [12]) was > 100 µM, the TGI (SNB-75 [11]; read-out: TGI) was 34.1 µM and the GI50 (SNB-75 [11]; read-out: pGI50 (converted)) was 2.45 µM. For the same molecule, the CC50 (SNB-75 [11]; [13]) was > 100 µM, the TGI (SNB-75 [11]; read-out: pTGI (converted)) was 33.9 µM and the growth at 10 µM (HOP-62) was 105%. The GI50 (NCI-H226; read-out: GI50) was 3.1 µM, the CC50 (NCI-H226; [12]) was > 100 µM and the TGI (NCI-H226; read-out: TGI) was 8.63 µM. For the same molecule, the GI50 (NCI-H226; read-out: pGI50 (converted)) was 3.09 µM, the CC50 (NCI-H226; [13]) was > 100 µM and the TGI (NCI-H226; read-out: pTGI (converted)) was 8.71 µM.
